Reference: patent US12240844B2 (Voronoi, Inc., priority 2019, dated 2025)

What was measured:
TNF-α = TNF-α secretion inhibition in LPS-treated THP-1 cells (ELISA); type: cell-based; settings: Homo sapiens, compound 0.5 μM, LPS 500 ng/ml, 24 hours, read-out: THP-1/TNF-a (% inhib)
Description: In order to evaluate the cytokine secretion inhibitory efficacy of mononuclear cells, THP-1 cells (ATCC, #TIB-202) as a human-derived monocyte cell line were cultured in RPMI-1640 (Hyclone, SH30027.01) media in which 10% fetal bovine serum (Hyclone, SH30084.03), 1% penicillin streptomycin (Welgene, LS202-02) and 50 μM 2-Mercaptoethanol (Gibco, #21985023) were contained. In the test, 1.5-2×10^5 cells/250 μl per each well were dispensed in a 48-well plate (SPL, #30048) and incubated in an incubator at 37° C. and 5% CO2 for 16 hours, and then the compounds were diluted in DMSO so that the final concentration was 0.5 μM. It was treated with Lipopolysaccharides (LPS) (sigma, #L6529) […]. After treatment with the compound, the LPS was treated so that the final concentration was 500 ng/ml, and then the cell culture fluid was collected after culturing for 24 hours, and the degrees of the cytokines IL-6 (R&D system, #D6050) and TNF-α (R&D system, #DTA00D) contained in the culture fluid were collected using each ELISA kit. After performing the experiment according to the manufacturer's instructions, the absorbance at 450 nm was measured and analyzed using a microplate reader.

human DYRK1A and Tau = assay: Tau phosphorylation inhibition, ClariCELL Kinase Cell-Based Assay (Carnabio)
How it was run: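 HEK293 cells transiently expressing human DYRK1A and Tau were exposed to compound, then lysed. Released Tau was captured on plate and its phosphorylation quantified by ELISA with a phospho-Tau-specific antibody.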

[1] = target: T1, LRRK2, LRRK2 (G2019S), DYRK1, CLK1 and TTK kinases (Homo sapiens, UniProt P49759); assay: Enzyme IC50 by Kinase HotSpot service (Reaction Biology Corporation), values marked with *; type: biochemical; settings: CLK1, ATP 10 uM
T1 construct: CLK1 IC50 (marked with *); other: CLK1; Kinase HotSpot service (Reaction Biology), ATP 10 uM
How it was run: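 Radiometric-service kinase assays (Reaction Biology HotSpot protocol) run at 10 uM ATP under uniform conditions. Compounds tested as 3-fold dilution series from a top concentration of […] to give IC50.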

T1 sequence (P49759 whole entry, stated change not applied): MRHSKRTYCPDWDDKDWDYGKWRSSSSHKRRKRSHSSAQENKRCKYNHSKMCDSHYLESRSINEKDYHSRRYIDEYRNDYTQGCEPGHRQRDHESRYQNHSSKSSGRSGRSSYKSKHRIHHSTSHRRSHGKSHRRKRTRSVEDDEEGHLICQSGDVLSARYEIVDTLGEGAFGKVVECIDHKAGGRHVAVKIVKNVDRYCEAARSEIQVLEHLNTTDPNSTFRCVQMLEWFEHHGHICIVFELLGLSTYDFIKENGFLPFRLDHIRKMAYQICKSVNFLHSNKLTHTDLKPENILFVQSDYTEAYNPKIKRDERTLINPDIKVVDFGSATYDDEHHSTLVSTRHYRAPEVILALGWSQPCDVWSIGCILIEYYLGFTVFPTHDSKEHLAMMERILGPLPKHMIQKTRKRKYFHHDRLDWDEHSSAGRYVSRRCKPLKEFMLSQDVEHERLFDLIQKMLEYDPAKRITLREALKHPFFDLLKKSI

IC50 [1] | Compound | inhibition at 0.5 µM (TNF-α) | inhibition at 0.25 µM (human DYRK1A and Tau) | inhibition at 0.5 µM (human DYRK1A and Tau) | inhibition at 1 µM (human DYRK1A and Tau)
 | CNc1cc(Nc2ccc(S(=O)(=O)N3CCC(N4C[C@H]5C[C@@H]4CO5)CC3)cc2OC)nc2[nH]cc(C(F)(F)F)c12 [Example 243, N^6-(4-((4-((1R,4R)-2-oxa-5-azabicyclo[2.2.1]heptan-5-yl)piperidin-1-yl)sulfonyl)-2-methoxyphenyl)-N^4-methyl-3-(trifluoromethyl)-1H-pyrrolo[2,3-b]pyridine-4,6-diamine] | 2.1% | 64.4% | 85% | 104%
 | CCNc1cc(Nc2ccc(S(=O)(=O)N3CCC(N4CCOCC4)CC3)c3c2OCCO3)nc2[nH]cc(C(F)(F)F)c12 [Example 96, N^4-ethyl-N^6-(8-((4-morpholonopiperidin-1-yl)sulfonyl)-2,3-dihydrobenzo [b] [1,4]dioxin-5-yl)-3-(trifluoromethyl)-1H-pyrrolo[2,3-b]pyridine-4,6-diamine] |  | 11% | 19.6% | 52.8%
 | COCCNc1cc(Nc2ccc(S(=O)(=O)N3CCC(N4CCOCC4)CC3)c3c2OCCO3)nc2[nH]cc(C(F)(F)F)c12 [Example 97, N^4-(2-methoxyethyl)-N^6-(8-((4-morpholonopiperidin-1-yl)sulfonyl)-2,3-dihydrobenzo[b] [1,4]dioxin-5-yl)-3-(trifluoromethyl)-1H-pyrrolo[2,3-b]pyridine-4,6-diamine] | 5.5% | 22.3% | 42% | 67.2%
 | O=C(c1ccc(Nc2cc(C3CC3)c3c(C(F)(F)F)c[nH]c3n2)c2c1OCCO2)N1CCC(N2CCOCC2)CC1 [Example 221, (8-((4-cyclopropyl-3-(trifluoromethyl)-1H-pyrrolo[2,3-b]pyridin-6-yl)amino)-2,3-dihydrobenzo [b] [1,4]dioxin-5-yl)(4-morpholinopiperidin-1-yl)methanone] |  | 6.2% | 24.7% | 23%
 | CNc1cc(Nc2ccc(C(=O)N3CC[C@@H](N4CCOCC4)C3)c3c2OCC3)nc2[nH]cc(C(F)(F)F)c12 [Example 214, (R)-(7-((4-(methylamino)-3-(trifluoromethyl)-1H-pyrrolo[2,3-b]pyridin-6-yl)amino)-2,3-dihydrobenzofuran-4-yl)(3-morpholinopyrrolidin-1-yl)methanone] | 12% | 33.9% | 60.1% | 76.8%
 | CCNc1cc(Nc2ccc(C(=O)N3CCN(C4COC4)CC3)c3c2OCCO3)nc2[nH]cc(C(F)(F)F)c12 [Example 173, (8-((4-(ethylamino)-3-(trifluoromethyl)-1H-pyrrolo[2,3-b]pyridin-6-yl)amino)-2,3-dihydrobenzo[b] [1,4]dioxin-5-yl)(4-(oxetan-3-yl)piperazin-1-yl)methanone] | 5.9% | 5.2% | 28.2% | 46.4%
 | O=C(c1ccc(Nc2cc(NC3CC3)c3c(C(F)(F)F)c[nH]c3n2)c2c1CCO2)N1CCC(N2CCOCC2)CC1 [Example 92, (7-((4-(cyclopropylamino)-3-(trifluoromethyl)-1H-pyrrolo[2,3-b]pyridin-6-yl)amino)-2,3-dihydrobenzofuran-4-yl)(4-morpholinopiperidin-1-yl)methanone] |  | 27.5% | 52.4% | 77.2%
 | CCNc1cc(Nc2ccc(C(=O)N3CCC(N4C[C@@H]5C[C@H]4CO5)CC3)c3c2OCC3)nc2[nH]cc(C(F)(F)F)c12 [Example 105, (4-((1S,4S)-2-oxa-5-azabicyclo[2.2.1]heptan-5-yl)piperidin-1-yl)(7-((4-(ethylamino)-3-(trifluoromethyl)-1H-pyrrolo[2,3-b]pyridin-6-yl)amino)-2,3-dihydrobenzofuran-4-yl)methanone] | 1.7% | 60.2% | 74% | 92%
 | COc1cc(S(=O)(=O)N2CCC(N3CCOCC3)CC2)ccc1Nc1cc(NCCS(C)(=O)=O)c2c(C(F)(F)F)c[nH]c2n1 [Example 194, N^6-(2-methoxy-4-((4-morpholinopiperidin-1-yl)sulfonyl)phenyl)-N^4-(2-(methylsulfonyl)ethyl)-3-(trifluoromethyl)-1H-pyrrolo[2,3-b]pyridine-4,6-diamine] | 37.6% |  |  | 
 | CNc1cc(Nc2ccc(C(=O)N3CCC(N4CCOCC4)CC3)c3c2OCC3)nc2[nH]cc(C(F)(F)F)c12 [Example 234, (7-((4-(methylamino)-3-(trifluoromethyl)-1H-pyrrolo[2,3-b]pyridin-6-yl)amino)-2,3-dihydrobenzofuran-4-yl)(4-morpholinopiperidin-1-yl)methanone] | 12.4% | 41.8% | 65.3% | 81.5%
 | CCNc1cc(Nc2ccc(C(=O)N3CCC(N4C[C@H]5C[C@@H]4CO5)CC3)c3c2OCC3)nc2[nH]cc(C(F)(F)F)c12 [Example 244, (4-((1R,4R)-2-oxa-5-azabicyclo[2.2.1]heptan-5-yl)piperidin-1-yl)(7-((4-(ethylamino)-3-(trifluoromethyl)-1H-pyrrolo[2,3-b]pyridin-6-yl)amino)-2,3-dihydrobenzofuran-4-yl)methanone] | 12.7% | 58% | 86% | 107%
 | CCNc1cc(Nc2ccc(P3(=O)CCN(C4CCOCC4)CC3)cc2OC)nc2[nH]cc(C(F)(F)F)c12 [Example 94, 4-(4-((4-(ethylamino)-3-(trifluoromethyl)-1H-pyrrolo[2,3-b]pyridin-6-yl)amino)-3-methoxyphenyl)-1-(tetrahydro-2H-pyran-4-yl)-1,4-azaphosphinane 4-oxide] | 6.6% | 22.2% | 30.5% | 53.2%
 | CCNc1cc(Nc2ccc(C(=O)N3CCN(C4COC4)CC3)c3c2OCC3)nc2[nH]cc(C(F)(F)F)c12 [Example 248, (7-((4-(ethylamino)-3-(trifluoromethyl)-1H-pyrrolo[2,3-b]pyridin-6-yl)amino)-2,3-dihydrobenzofuran-4-yl)(4-(oxetan-3-yl)piperazin-1-yl)methanone] | 9.2% | 53.5% | 76% | 95.1%
 | CNc1cc(Nc2ccc(S(=O)(=O)N3CCC(N4CCOCC4)CC3)c3c2OCCO3)nc2[nH]cc(C(F)(F)F)c12 [Example 233, N^4-methyl-N^6-(8-((4-morpholinopiperidin-1-yl)sulfonyl)-2,3-dihydrobenzo [b] [1,4]dioxin-5-yl)-3-(trifluoromethyl)-1H-pyrrolo[2,3-b]pyridine-4,6-diamine] | 12.5% | 17.7% | 34.6% | 70.3%
 | CNc1cc(Nc2ccc(C(=O)N3CC[C@H](N4CCOCC4)C3)c3c2OCC3)nc2[nH]cc(C(F)(F)F)c12 [Example 217, (S)-(7-((4-(methylamino)-3-(trifluoromethyl)-1H-pyrrolo[2,3-b]pyridin-6-yl)amino)-2,3-dihydrobenzofuran-4-yl)(3-morpholinopyrrolidin-1-yl)methanone] |  | 50.2% | 60.6% | 84.5%
 | O=C(c1ccc(Nc2cc(C3CC3)c3c(C(F)(F)F)c[nH]c3n2)c2c1CCO2)N1CCC(N2CCOCC2)CC1 [Example 93, (7-((4-cyclopropyl-3-(trifluoromethyl)-1H-pyrrolo[2,3-b]pyridin-6-yl)amino)-2,3-dihydrobenzofuran-4-yl)(4-morpholinopiperidin-1-yl)mthanone] |  | 12% | 28.8% | 50.1%
< 100 nM | O=C(c1ccc(Nc2cc(C3CC3)c3c(C(F)(F)F)c[nH]c3n2)c2c1CCO2)N1CCOCC1 [Example 91, (7-((4-cyclopropyl-3-(trifluoromethyl)-1H-pyrrolo[2,3-b]pyridin-6-yl)amino)-2,3-dihydrobenzofuran-4-yl)(morpholino) methanone] | 9.6% | 12.9% | 33.1% | 44.3%
 | CCNc1cc(Nc2ccc(C(=O)N3CCC(N4CCOCC4)CC3)c3c2OCC3)nc2[nH]cc(C(F)(F)F)c12 [Example 90, (7-((4-(ethylamino)-3-(trifluoromethyl)-1H-pyrrolo[2,3-b]pyridin-6-yl)amino)-2,3-dihydrobenzofuran-4-yl)(4-morpholinopiperidin-1-yl)methanone] | 12.4% | 23.3% | 51.7% | 70.3%
